Read-outs that look alike come from different tables or passages of the source.
Columns and labels:
[1] = cited from earlier work
[2] = cited from earlier work; remark: listed apart in the source
[3] = system: adult emergency department (ED) patients with acute musculoskeletal pain; experiment: Reduction of acute musculoskeletal pain (NRS) in adult ED patients, trial of Example 1/5; conditions: NRS 0-10, 60 minutes post medication; doses of Table 1 (dual route ketamine 0.5 mg/kg + aspirin 325 mg; IV ketamine 0.3 mg/kg; IV morphine 0.1 mg/kg; MSIR 15 mg; Percocet 10 mg); comparators from similar trials, same center and protocol; FIG. 1

N[C@@H]1c2cccnc2[C@H](OC(=O)N2CCC(n3c(=O)[nH]c4ncccc43)CC2)CC[C@H]1c1cccc(F)c1F [rimegepant, Rimegepant]
Absolute oral bioavailability ([1]; in vivo, po): approximately 64% | Eliminated in unchanged form ([1]; in vivo): ~77 % of the dose | Major metabolites (i.e., >10%) detected in plasma ([1]; in vivo): no major metabolites | Time of maximum concentration ([1]; oral administration of NURTEC Orally Disintegrating Tablet): 1.5 h

NC1(c2ccccc2Cl)CCCCC1=O (stereo not drawn) [norketamine]
Plasma levels of the metabolite relative to ketamine ([2]; following oral administration of ketamine): three times higher

CN1CC[C@]23c4c5ccc(O)c4O[C@H]2[C@@H](O)C=C[C@H]3[C@H]1C5 [IV morphine, Morphine]
Reduction of acute musculoskeletal pain [3]: 5.1 points

CNC1(c2ccccc2Cl)CCCCC1=O (stereo not drawn) [ketamine]
Bioavailability ([2]; IV): about 100% | Elimination half-life ([2]; in vivo): 2 to 3 h | Bioavailability ([2]; intramuscular injection): about 93% | Delay of serum peak concentration, GI absorption versus direct (oral mucosal) absorption ([2]; ketamine given concurrently through the GI, patent's own reasoning, no PK data shown): 15 to 20 min | Bioavailability ([2]; oral route): 18-20% | Time at which maximal concentrations are reached ([2]; orally): 30 min

CC(C)Cc1ccc(C(C)C(=O)O)cc1 (stereo not drawn) [oral ibuprofen, Ibuprofen]
Reduction of acute musculoskeletal pain [3]: 2 points

CN1CC[C@]23c4c5ccc(O)c4O[C@H]2[C@@H](O)C=C[C@H]3[C@H]1C5.O=S(=O)(O)O [oral morphine, Morphine Sulfate]
Reduction of acute musculoskeletal pain [3]: about 4 points

CNC1(c2ccccc2Cl)CCCCC1=O (stereo not drawn) [intranasal (nebulized) ketamine, ketamine]
Reduction of acute musculoskeletal pain [3]: about 4 points
